Assay results from patent US9487489B2, “Halogen-substituted pyrazole derivatives as pest-control agents” (BAYER CROPSCIENCE AKTIENGESELLSCHAFT, priority 2013, dated 2016).

Experiments:
[1] = test system: caterpillars of the armyworm (Spodoptera frugiperda); experiment: Spodoptera frugiperda spray test (SPODFR); format: in vivo; conditions: maize leaf discs, after 7 days
In short: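 Maize leaf discs sprayed with compound in acetone/DMF with alkylaryl polyglycol ether emulsifier (1000 ppm) in water, dried, then infested with armyworm caterpillars. Mortality (%) scored after 7 days; 100% = all caterpillars killed, 0% = none killed.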

[2] = test system: adult cat fleas (Ctenocephalides felis); experiment: Ctenocephalides felis oral test (CTECFE); format: in vivo; conditions: application rate 100 ppm in citrated cattle blood; after 2 days
In short: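 About 20 unfed adult cat fleas fed through parafilm membrane on citrated cattle blood containing compound (DMSO stock diluted in blood to test concentration). Kill % scored after 2 days (100% = all fleas dead).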

[3] = test system: greenhouse red spider mite (Tetranychus urticae); experiment: Tetranychus urticae spray test, OP-resistant (TETRUR); format: in vivo; conditions: bean leaf discs, after 6 days
In short: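 Bean leaf discs carrying all stages of OP-resistant Tetranychus urticae were sprayed with compound formulated in acetone/dimethylformamide and diluted in water with 1000 ppm alkylaryl polyglycol ether emulsifier. Mortality (% efficacy, 100% = all mites killed) scored after 6 days.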

[4] = test system: L1 larvae of the Australian sheep blowfly (Lucilia cuprina); experiment: Lucilia cuprina test (LUCICU); format: in vivo; conditions: application rate 100 ppm; after 2 days
In short: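 About 20 L1 larvae placed in a vessel with minced horsemeat plus compound (DMSO concentrate diluted with water to the desired concentration). Kill in % scored after 2 days, 100% meaning all larvae dead.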

[5] = test system: green peach aphid (Myzus persicae); experiment: Myzus persicae spray test (MYZUPE); format: in vivo; conditions: Chinese cabbage leaf discs, after 6 days
In short: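 Chinese cabbage leaf discs infested with all aphid stages sprayed with compound in acetone/DMF with alkylaryl polyglycol ether emulsifier in water. Efficacy (% aphids killed; 100% all dead, 0% none) scored after 6 days.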

[6] = test system: larvae of the mustard beetle (Phaedon cochleariae); experiment: Phaedon cochleariae spray test (PHAECO); format: in vivo; conditions: Chinese cabbage leaf discs, after 7 days
In short: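 Compound dissolved in acetone/dimethylformamide with alkylaryl polyglycol ether emulsifier, made up in water containing 1000 ppm emulsifier, then diluted to test concentrations and sprayed against mustard beetle larvae. Efficacy (% larvae killed) scored after 7 days.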

[7] = test system: adult dog ticks (Rhipicephalus sanguineus); experiment: Rhipicephalus sanguineus in vitro contact test with adult brown dog ticks (T2); conditions: after 48 h
In short: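 Acetone solutions coated onto test tube walls and floor, giving 5 μg/cm^2 at 900 ppm. Five to ten adult ticks held per tube in the dark at room temperature for 48 h, then heated at 45-50° C for up to 5 min; efficacy is the percentage of dead or moribund ticks unable to climb away.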

[8] = test system: cattle ticks (Boophilus microplus) Parkhurst strain, SP-resistant; experiment: Boophilus microplus dip test (BOOPMI Dip); format: in vivo; conditions: application rate 100 ppm, assessed after 7 days
Method: B. Boophilus microplus-dip Test (BOOPMI Dip)
Test animals: cattle ticks (Boophilus microplus) Parkhurst strain, SP-resistant
Solvent: dimethyl sulphoxide
10 mg of active compound are dissolved in 0.5 ml of dimethyl sulphoxide. For the purpose of preparing a suitable formulation, the active compound solution is diluted with water to the concentration desired in each case.
This active compound preparation is pipetted into tubes. 8-10 adult engorged female cattle ticks (Boophilus microplus) are transferred into a further tube with holes. The tube is immersed into the active compound formulation, and all ticks are completely wetted. After the liquid has run out, the ticks are transferred on filter discs into plastic dishes and stored in a climate-controlled room.
The activity is assessed after 7 days by laying of fertile eggs. Eggs whose fertility is not visible from the outside are stored in a climate-controlled cabinet until the larvae hatch after about 42 days. An efficacy of 100% means that none of the ticks has laid any fertile eggs; 0% means that all eggs are fertile.

[9] = test system: adult cat fleas (Ctenocephalides felis); experiment: Ctenocephalides felis in vitro contact test with adult cat fleas (T1); conditions: after 48 h
In short: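 Test compound was dissolved in acetone p.a. (9 mg per 1 ml) and diluted as needed. 250 μl was spread evenly over the inner walls and floor of a 25 ml test tube by rotating on an orbital shaker for 2 h at 30 rpm. Once the solvent evaporated, 5-10 adult Ctenocephalides felis were added. Tubes were capped with a perforated plastic lid and kept horizontal at room temperature and ambient humidity.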

[10] = test system: adult houseflies (Musca domestica); experiment: Musca domestica test (MUSCDO); format: in vivo; conditions: application rate 100 ppm; after 2 days
In short: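 Compound dissolved in DMSO and diluted with water to the test concentration, applied with sugar solution on a sponge; 10 adult houseflies per vessel. Mortality scored after 2 days as % kill (100% all dead, 0% none).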

[11] = test system: engorged adult female cattle ticks (Boophilus microplus); experiment: Boophilus microplus injection test (BOOPMI Inj); format: in vivo; conditions: application rate 20 μg/animal; injection into abdomen; assessed after 7 days
In short: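 DMSO solution of compound (1 μl) injected into the abdomen of 5 engorged adult female ticks, which are then held in a climate-controlled room. After 7 days, efficacy is scored from laying of fertile eggs, with unclear eggs kept until larval hatch (~42 days); 100% means no fertile eggs, 0% all fertile.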

[12] = logP determination by HPLC on a reversed-phase column (C18), EEC Directive 79/831 Annex V.A8; format: physicochemical; conditions: HPLC on reversed-phase column (C18), acetonitrile/water with formic acid, EEC Directive 79/831 Annex V.A8
In short: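 Retention on a C18 reversed-phase column (Zorbax Eclipse Plus, 1.8 micron) was used, eluting with acetonitrile/water, each containing formic acid. The gradient ran from 10% to 95% acetonitrile over 4.25 min, then held 1.25 min, at 55° C and 2.0 ml/min, with MS detection.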

Row | SMILES | efficacy in % ([1]; application rate 500 g/ha) | efficacy (kill in %) [2] | efficacy in % ([3]; application rate 500 g/ha) | efficacy (kill in %) [4] | efficacy in % ([5]; application rate 100 g/ha) | efficacy in % ([5]; application rate 500 g/ha) | efficacy in % ([6]; application rate 500 g/ha) | efficacy (dead or moribund ticks) ([7]; application rate 1 μg/cm^2) | efficacy (laying of fertile eggs) [8] | efficacy (dead or moribund fleas) ([9]; application rate 1 μg/cm^2) | efficacy (dead or moribund fleas) ([9]; application rate 5 μg/cm^2) | efficacy (kill in %) [10] | efficacy (laying of fertile eggs) [11] | efficacy in % ([1]; application rate 100 g/ha) | efficacy in % ([3]; application rate 100 g/ha) | efficacy in % ([6]; application rate 100 g/ha) | logP [12] | efficacy (dead or moribund ticks) ([7]; application rate 5 μg/cm^2)
1 | Cn1nc(C(F)(F)C(F)(F)F)c(C(F)(F)F)c1-n1cc(-c2ccc(Cl)c(C(=O)NCC#N)c2)cn1 [Ic-147] | 100% | 100% | 100% | 100% | 90% | 100% | 100% | 80% | 100% | 100% | 100% | 100% | 100% |  |  |  |  | 
2 | Cn1nc(C(F)(F)C(F)(F)F)c(C(F)(F)F)c1-n1cc(-c2ccc([N+](=O)[O-])c(C(=O)NC3(C#N)CC3)c2)cn1 [Ic-65] |  | 100% |  | 100% | 90% |  |  |  | 100% | 100% | 100% | 100% | 100% | 83% | 100% | 100% | 3.48 | 
3 | Cn1nc(C(F)(F)C(F)(F)F)c(C(F)(F)F)c1-n1cc(-c2ccc(Cl)c(C(=O)NCC(C)(F)F)c2)cn1 [Ic-80] |  | 100% |  | 100% | 90% |  |  |  | 80% |  |  | 100% | 100% | 100% | 100% | 100% | 4.05 | 
4 | Cn1nc(C(F)(F)C(F)(F)F)c(C(F)(F)F)c1-n1cc(-c2ccc(Cl)c(C(=O)NCC=CCl)c2)cn1 [Ic-112] |  |  |  |  | 100% |  |  | 100% | 100% | 100% | 100% |  |  | 100% | 100% |  | 4.13 | 100%
5 | Cn1nc(C(F)(F)C(F)(F)F)c(C(F)(F)F)c1-n1cc(-c2ccc(Cl)c(C(=O)N[C@@H]3CCOC3)c2)cn1 [Ic-164] | 100% | 100% | 100% | 100% |  | 90% | 100% | 100% | 100% | 100% | 100% | 90% | 100% |  |  |  |  | 100%
6 | Cn1ccc(NC(=O)c2cc(-c3cnn(-c4c(C(F)(F)F)c(C(F)(F)C(F)(F)F)nn4C)c3)ccc2Cl)n1 [Ic-159] | 100% | 100% | 100% | 100% |  | 100% | 100% |  | 80% | 100% | 100% | 100% | 100% |  |  |  |  | 
